Assay results published in US4791116A, “N,N-diethyl-N'-[(8α)-1-ethyl-6-methyl-ergolin-8-yl]-sulfamide useful as prolactin secretion inhibitor, anti-parkinson agents and anti-depressant agents” (priority 1983, dated 1988).
Read-outs that look alike come from different tables or passages of the source.

How the values were obtained:
[1] = test system: central dopamine receptor; experiment: Ungerstedt test: turning in rats lesioned unilaterally with 6-hydroxy-dopamine (anti-parkinson); type: in vivo, rat
Procedure: In particular the compounds are useful as central dopamine receptor agents for the treatment of e.g. Morbus Parkinson as indicated in standard tests. For example in rates lesioned unilaterally in the nigro-neostratal dopamine pathway by the effect of a 6-hydroxy-dopamine injection in the substantia nigra the compounds at doses of between about 3 and about 30 mg/kg p.o., according to the method of U.Ungerstedt Acta.physiol.scand.Suppl.387, 69-93 (1971) and substantially the same as that described by J. M. Vigouret et al., Pharmacology 16 (Suppl.1) 156-193 (1978), induce turning in the direction of the non-denerved side over a long period of time, e.g. several hours.

implantation = experiment: inhibition of implantation in female rats; type: in vivo; details: Rattus norvegicus, sc, read-out: ED50 Implantation
Description: The effects are for an unexpectedly long period e.g. several hours.

[2] = tolerability in the beagle dog; type: in vivo; details: p.o.

Row | SMILES | Ungerstedt test, No of rotations ([1]; at 0.1 mg/kg s.c.) | ED50 (implantation) | Ungerstedt test, No of rotations ([1]; 3 mg/kg p.o., over 7 hours) | anti-parkinson activity relative to prolactin secretion activity ([1]; comparison with prolactin secretion tests) | emetic effects [2] | ED50 (implantation; female rats, s.c.)
1 | CC(C)C[C@H]1C(=O)N2CCC[C@H]2[C@]2(O)O[C@](NC(=O)[C@@H]3C=C4c5cccc6[nH]c(Br)c(c56)C[C@H]4N(C)C3)(C(C)C)C(=O)N12 [Bromocriptine, reference compound] | 80 | 0.75 mg/kg |  |  |  | 
2 | CCN(CC)S(=O)(=O)N[C@H]1C[C@@H]2c3cccc4c3c(cn4CC)C[C@H]2N(C)C1 [Example 1, N,N-Diethyl-N'-[(8α)-1-ethyl-6-methyl-ergolin-8-yl]-sulfamide] |  |  | 774 | particularly patent anti-parkinson activity relative to prolactin secretion activity | few emetic effects | 0.23 mg/kg
3 | CCN(CC)S(=O)(=O)N[C@H]1C[C@@H]2c3cccc4c3c(cn4C(C)C)C[C@H]2N(C)C1 [Example 2, N,N-Diethyl-N'-[(8α)-1-isopropyl-6-methylergolin-8-yl]sulfamide] |  |  | 1608 |  |  | 0.08 mg/kg
